# Reference: patent US10485235B2, “Aryloxypyrimidinyl ethers as herbicides” (FMC Corporation, priority 2015, dated 2019)
# System: pigweed (Amaranthus retroflexus)
# Experiment: Test A preemergence, pigweed
# Format: in vivo
# Conditions: Preemergence, 31 g ai/ha; 0 to 100 scale (0 no effect, 100 complete control)
# Procedure, shortened: (§1)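 Approximately 10-day greenhouse assay. Formulated chemical (non-phytotoxic solvent plus surfactant) applied preemergence to soil over seeds or postemergence to plants of 2 to 10 cm. Endpoint: visual percent control, 0–100.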
row,Compound,"Plant response rating, Pigweed"
1,FC(F)(F)CCCOc1c(I)cccc1Oc1ncc(Cl)cn1 [Compound 60],70

# Same assay, conditions: Preemergence, 125 g ai/ha; 0 to 100 scale (0 no effect, 100 complete control)
row,Compound,"Plant response rating, Pigweed"
1,FC(F)(F)CCCOc1c(I)cccc1Oc1ncc(Cl)cn1 [Compound 60],100

# System: foxtail, giant (giant foxtail, Setaria faberii)
# Experiment: Test A postemergence, giant foxtail
# Format: in vivo
# Conditions: 31 g ai/ha, postemergence; 0 to 100 scale, 0 is no effect, 100 is complete control; approximately 10 days
# Procedure, shortened: as §1
row,Compound,"Plant response rating, Foxtail, Giant"
1,FC(F)(F)CCCOc1c(I)cccc1Oc1ncc(Cl)cn1 [Compound 60],30

# Same assay, conditions: 125 g ai/ha, postemergence; 0 to 100 scale, 0 is no effect, 100 is complete control; approximately 10 days
row,Compound,"Plant response rating, Foxtail, Giant"
1,FC(F)(F)CCCOc1c(I)cccc1Oc1ncc(Cl)cn1 [Compound 60],80

# System: barnyardgrass (Echinochloa crus-galli)
# Experiment: Test A preemergence, barnyardgrass
# Format: in vivo
# Conditions: Preemergence, 31 g ai/ha; 0 to 100 scale (0 no effect, 100 complete control)
# Procedure, shortened: as §1
row,Compound,"Plant response rating, Barnyardgrass"
1,FC(F)(F)CCCOc1c(I)cccc1Oc1ncc(Cl)cn1 [Compound 60],20

# Same assay, conditions: Preemergence, 125 g ai/ha; 0 to 100 scale (0 no effect, 100 complete control)
row,Compound,"Plant response rating, Barnyardgrass"
1,FC(F)(F)CCCOc1c(I)cccc1Oc1ncc(Cl)cn1 [Compound 60],80

# System: ducksalad (Heteranthera limosa)
# Experiment: Test B flooded paddy test, ducksalad
# Format: in vivo
# Conditions: 250 g ai/ha, Flood; visual rating after 13 to 15 days; scale 0 to 100, 0 is no effect, 100 is complete control
# Procedure, shortened: (§2)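 Visual ratings, 0 = no effect to 100 = complete control, versus controls after 13 to 15 days in greenhouse. Test compounds were added to paddy water kept 3 cm over the soil surface, on plants at 2-leaf stage.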
row,Compound,"Plant response rating, Ducksalad"
1,FC(F)(F)CCCOc1c(I)cccc1Oc1ncc(Cl)cn1 [Compound 60],100

# System: kochia (Kochia scoparia)
# Experiment: Test A postemergence, kochia
# Format: in vivo
# Conditions: 31 g ai/ha, postemergence; 0 to 100 scale, 0 is no effect, 100 is complete control; approximately 10 days
# Procedure, shortened: as §1
row,Compound,"Plant response rating, Kochia"
1,FC(F)(F)CCCOc1c(I)cccc1Oc1ncc(Cl)cn1 [Compound 60],90

# Same assay, conditions: 125 g ai/ha, postemergence; 0 to 100 scale, 0 is no effect, 100 is complete control; approximately 10 days
row,Compound,"Plant response rating, Kochia"
1,FC(F)(F)CCCOc1c(I)cccc1Oc1ncc(Cl)cn1 [Compound 60],90

# System: barnyardgrass (Echinochloa crus-galli)
# Experiment: Test A postemergence, barnyardgrass
# Format: in vivo
# Conditions: 31 g ai/ha, postemergence; 0 to 100 scale, 0 is no effect, 100 is complete control; approximately 10 days
# Procedure, shortened: as §1
row,Compound,"Plant response rating, Barnyardgrass"
1,FC(F)(F)CCCOc1c(I)cccc1Oc1ncc(Cl)cn1 [Compound 60],30

# Same assay, conditions: 125 g ai/ha, postemergence; 0 to 100 scale, 0 is no effect, 100 is complete control; approximately 10 days
row,Compound,"Plant response rating, Barnyardgrass"
1,FC(F)(F)CCCOc1c(I)cccc1Oc1ncc(Cl)cn1 [Compound 60],100

# System: galium (catchweed bedstraw, Galium aparine)
# Experiment: Test A postemergence, galium
# Format: in vivo
# Conditions: 31 g ai/ha, postemergence; 0 to 100 scale, 0 is no effect, 100 is complete control; approximately 10 days
# Procedure, shortened: as §1
row,Compound,"Plant response rating, Galium"
1,FC(F)(F)CCCOc1c(I)cccc1Oc1ncc(Cl)cn1 [Compound 60],70

# Same assay, conditions: 125 g ai/ha, postemergence; 0 to 100 scale, 0 is no effect, 100 is complete control; approximately 10 days
row,Compound,"Plant response rating, Galium"
1,FC(F)(F)CCCOc1c(I)cccc1Oc1ncc(Cl)cn1 [Compound 60],100

# System: kochia (Kochia scoparia)
# Experiment: Test A preemergence, kochia
# Format: in vivo
# Conditions: Preemergence, 31 g ai/ha; 0 to 100 scale (0 no effect, 100 complete control)
# Procedure, shortened: as §1
row,Compound,"Plant response rating, Kochia"
1,FC(F)(F)CCCOc1c(I)cccc1Oc1ncc(Cl)cn1 [Compound 60],30

# Same assay, conditions: Preemergence, 125 g ai/ha; 0 to 100 scale (0 no effect, 100 complete control)
row,Compound,"Plant response rating, Kochia"
1,FC(F)(F)CCCOc1c(I)cccc1Oc1ncc(Cl)cn1 [Compound 60],40

# System: foxtail, giant (giant foxtail, Setaria faberii)
# Experiment: Test A preemergence, giant foxtail
# Format: in vivo
# Conditions: Preemergence, 31 g ai/ha; 0 to 100 scale (0 no effect, 100 complete control)
# Procedure, shortened: as §1
row,Compound,"Plant response rating, Foxtail, Giant"
1,FC(F)(F)CCCOc1c(I)cccc1Oc1ncc(Cl)cn1 [Compound 60],90

# Same assay, conditions: Preemergence, 125 g ai/ha; 0 to 100 scale (0 no effect, 100 complete control)
row,Compound,"Plant response rating, Foxtail, Giant"
1,FC(F)(F)CCCOc1c(I)cccc1Oc1ncc(Cl)cn1 [Compound 60],90

# System: barnyardgrass (Echinochloa crus-galli)
# Experiment: Test B flooded paddy test, barnyardgrass
# Format: in vivo
# Conditions: 250 g ai/ha, Flood; visual rating after 13 to 15 days; scale 0 to 100, 0 is no effect, 100 is complete control
# Procedure, shortened: as §2
row,Compound,"Plant response rating, Barnyardgrass"
1,FC(F)(F)CCCOc1c(I)cccc1Oc1ncc(Cl)cn1 [Compound 60],20

# System: ryegrass, Italian (Italian ryegrass, Lolium multiflorum)
# Experiment: Test A postemergence, Italian ryegrass
# Format: in vivo
# Conditions: 31 g ai/ha, postemergence; 0 to 100 scale, 0 is no effect, 100 is complete control; approximately 10 days
# Procedure, shortened: as §1
row,Compound,"Plant response rating, Ryegrass, Italian"
1,FC(F)(F)CCCOc1c(I)cccc1Oc1ncc(Cl)cn1 [Compound 60],0

# Same assay, conditions: 125 g ai/ha, postemergence; 0 to 100 scale, 0 is no effect, 100 is complete control; approximately 10 days
row,Compound,"Plant response rating, Ryegrass, Italian"
1,FC(F)(F)CCCOc1c(I)cccc1Oc1ncc(Cl)cn1 [Compound 60],70

# System: blackgrass (Alopecurus myosuroides)
# Experiment: Test A postemergence, blackgrass
# Format: in vivo
# Conditions: 31 g ai/ha, postemergence; 0 to 100 scale, 0 is no effect, 100 is complete control; approximately 10 days
# Procedure, shortened: as §1
row,Compound,"Plant response rating, Blackgrass"
1,FC(F)(F)CCCOc1c(I)cccc1Oc1ncc(Cl)cn1 [Compound 60],30

# Same assay, conditions: 125 g ai/ha, postemergence; 0 to 100 scale, 0 is no effect, 100 is complete control; approximately 10 days
row,Compound,"Plant response rating, Blackgrass"
1,FC(F)(F)CCCOc1c(I)cccc1Oc1ncc(Cl)cn1 [Compound 60],50

# System: ragweed (common ragweed, Ambrosia elatior)
# Experiment: Test A preemergence, ragweed
# Format: in vivo
# Conditions: Preemergence, 31 g ai/ha; 0 to 100 scale (0 no effect, 100 complete control)
# Procedure, shortened: as §1
row,Compound,"Plant response rating, Ragweed"
1,FC(F)(F)CCCOc1c(I)cccc1Oc1ncc(Cl)cn1 [Compound 60],0

# Same assay, conditions: Preemergence, 125 g ai/ha; 0 to 100 scale (0 no effect, 100 complete control)
row,Compound,"Plant response rating, Ragweed"
1,FC(F)(F)CCCOc1c(I)cccc1Oc1ncc(Cl)cn1 [Compound 60],0

# System: sedge, umbrella (small-flower umbrella sedge, Cyperus difformis)
# Experiment: Test B flooded paddy test, umbrella sedge
# Format: in vivo
# Conditions: 250 g ai/ha, Flood; visual rating after 13 to 15 days; scale 0 to 100, 0 is no effect, 100 is complete control
# Procedure, shortened: as §2
row,Compound,"Plant response rating, Sedge, Umbrella"
1,FC(F)(F)CCCOc1c(I)cccc1Oc1ncc(Cl)cn1 [Compound 60],95

# System: ragweed (common ragweed, Ambrosia elatior)
# Experiment: Test A postemergence, ragweed
# Format: in vivo
# Conditions: 31 g ai/ha, postemergence; 0 to 100 scale, 0 is no effect, 100 is complete control; approximately 10 days
# Procedure, shortened: as §1
row,Compound,"Plant response rating, Ragweed"
1,FC(F)(F)CCCOc1c(I)cccc1Oc1ncc(Cl)cn1 [Compound 60],0

# Same assay, conditions: 125 g ai/ha, postemergence; 0 to 100 scale, 0 is no effect, 100 is complete control; approximately 10 days
row,Compound,"Plant response rating, Ragweed"
1,FC(F)(F)CCCOc1c(I)cccc1Oc1ncc(Cl)cn1 [Compound 60],30

# System: rice (Oryza sativa)
# Experiment: Test B flooded paddy test, rice
# Format: in vivo
# Conditions: 250 g ai/ha, Flood; visual rating after 13 to 15 days; scale 0 to 100, 0 is no effect, 100 is complete control
# Procedure, shortened: as §2
row,Compound,"Plant response rating, Rice"
1,FC(F)(F)CCCOc1c(I)cccc1Oc1ncc(Cl)cn1 [Compound 60],25

# System: corn (Zea mays)
# Experiment: Test A postemergence, corn
# Format: in vivo
# Conditions: 31 g ai/ha, postemergence; 0 to 100 scale, 0 is no effect, 100 is complete control; approximately 10 days
# Procedure, shortened: as §1
row,Compound,"Plant response rating, Corn"
1,FC(F)(F)CCCOc1c(I)cccc1Oc1ncc(Cl)cn1 [Compound 60],30

# Same assay, conditions: 125 g ai/ha, postemergence; 0 to 100 scale, 0 is no effect, 100 is complete control; approximately 10 days
row,Compound,"Plant response rating, Corn"
1,FC(F)(F)CCCOc1c(I)cccc1Oc1ncc(Cl)cn1 [Compound 60],30

# System: ryegrass, Italian (Italian ryegrass, Lolium multiflorum)
# Experiment: Test A preemergence, Italian ryegrass
# Format: in vivo
# Conditions: Preemergence, 31 g ai/ha; 0 to 100 scale (0 no effect, 100 complete control)
# Procedure, shortened: as §1
row,Compound,"Plant response rating, Ryegrass, Italian"
1,FC(F)(F)CCCOc1c(I)cccc1Oc1ncc(Cl)cn1 [Compound 60],0

# Same assay, conditions: Preemergence, 125 g ai/ha; 0 to 100 scale (0 no effect, 100 complete control)
row,Compound,"Plant response rating, Ryegrass, Italian"
1,FC(F)(F)CCCOc1c(I)cccc1Oc1ncc(Cl)cn1 [Compound 60],90

# System: pigweed (Amaranthus retroflexus)
# Experiment: Test A postemergence, pigweed
# Format: in vivo
# Conditions: 31 g ai/ha, postemergence; 0 to 100 scale, 0 is no effect, 100 is complete control; approximately 10 days
# Procedure, shortened: as §1
row,Compound,"Plant response rating, Pigweed"
1,FC(F)(F)CCCOc1c(I)cccc1Oc1ncc(Cl)cn1 [Compound 60],90

# Same assay, conditions: 125 g ai/ha, postemergence; 0 to 100 scale, 0 is no effect, 100 is complete control; approximately 10 days
row,Compound,"Plant response rating, Pigweed"
1,FC(F)(F)CCCOc1c(I)cccc1Oc1ncc(Cl)cn1 [Compound 60],90

# System: wheat (Triticum aestivum)
# Experiment: Test A postemergence, wheat
# Format: in vivo
# Conditions: 31 g ai/ha, postemergence; 0 to 100 scale, 0 is no effect, 100 is complete control; approximately 10 days
# Procedure, shortened: as §1
row,Compound,"Plant response rating, Wheat"
1,FC(F)(F)CCCOc1c(I)cccc1Oc1ncc(Cl)cn1 [Compound 60],0

# Same assay, conditions: 125 g ai/ha, postemergence; 0 to 100 scale, 0 is no effect, 100 is complete control; approximately 10 days
row,Compound,"Plant response rating, Wheat"
1,FC(F)(F)CCCOc1c(I)cccc1Oc1ncc(Cl)cn1 [Compound 60],20
